Values quoted from earlier work, collected in patent US20260021104A1, “BRILAROXAZINE LIPOSOME COMPOSITION” (Reviva Pharmaceuticals, Inc., priority 2023, published 2026).

What was measured:
5-HT2B/7 = settings: antagonist
5-HT2A = 5-HT2A (Homo sapiens, UniProt P28223); settings: weak partial agonist or neutral antagonist
D2-4 receptors = settings: partial agonist
[1] = target: serotonin transporter (SERT) (Homo sapiens, UniProt P31645)
5-HT1A receptors = target: T1, 5-HT1A receptors (Homo sapiens, UniProt P08908); settings: partial agonist
T1 sequence (P08908 1-422): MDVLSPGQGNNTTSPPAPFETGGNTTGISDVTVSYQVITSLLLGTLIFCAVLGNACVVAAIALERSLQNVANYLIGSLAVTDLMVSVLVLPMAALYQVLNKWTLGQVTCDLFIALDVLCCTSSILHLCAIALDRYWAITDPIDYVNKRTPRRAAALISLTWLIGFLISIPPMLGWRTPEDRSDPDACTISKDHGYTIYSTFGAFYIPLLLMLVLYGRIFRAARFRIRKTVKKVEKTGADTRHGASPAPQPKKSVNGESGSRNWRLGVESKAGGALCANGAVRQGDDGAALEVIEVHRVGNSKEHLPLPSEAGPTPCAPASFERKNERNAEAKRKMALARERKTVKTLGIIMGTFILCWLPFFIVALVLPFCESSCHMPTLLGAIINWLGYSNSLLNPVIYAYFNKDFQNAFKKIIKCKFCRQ

Chain of 5-HT2A (P28223 whole entry, species assumed): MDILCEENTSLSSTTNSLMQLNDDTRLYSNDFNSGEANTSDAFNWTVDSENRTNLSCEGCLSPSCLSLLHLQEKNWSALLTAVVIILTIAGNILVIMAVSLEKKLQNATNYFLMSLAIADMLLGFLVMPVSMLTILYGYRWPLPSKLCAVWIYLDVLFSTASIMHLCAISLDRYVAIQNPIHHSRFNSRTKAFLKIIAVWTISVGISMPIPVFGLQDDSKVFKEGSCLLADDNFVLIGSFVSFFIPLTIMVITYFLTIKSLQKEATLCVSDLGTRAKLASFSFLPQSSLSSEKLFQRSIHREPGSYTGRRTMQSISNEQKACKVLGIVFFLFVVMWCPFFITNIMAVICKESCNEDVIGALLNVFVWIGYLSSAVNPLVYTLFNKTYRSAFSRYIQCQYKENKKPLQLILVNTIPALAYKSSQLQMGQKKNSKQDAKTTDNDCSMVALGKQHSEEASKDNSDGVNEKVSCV
Chain of serotonin transporter (SERT) (P31645 whole entry, species assumed): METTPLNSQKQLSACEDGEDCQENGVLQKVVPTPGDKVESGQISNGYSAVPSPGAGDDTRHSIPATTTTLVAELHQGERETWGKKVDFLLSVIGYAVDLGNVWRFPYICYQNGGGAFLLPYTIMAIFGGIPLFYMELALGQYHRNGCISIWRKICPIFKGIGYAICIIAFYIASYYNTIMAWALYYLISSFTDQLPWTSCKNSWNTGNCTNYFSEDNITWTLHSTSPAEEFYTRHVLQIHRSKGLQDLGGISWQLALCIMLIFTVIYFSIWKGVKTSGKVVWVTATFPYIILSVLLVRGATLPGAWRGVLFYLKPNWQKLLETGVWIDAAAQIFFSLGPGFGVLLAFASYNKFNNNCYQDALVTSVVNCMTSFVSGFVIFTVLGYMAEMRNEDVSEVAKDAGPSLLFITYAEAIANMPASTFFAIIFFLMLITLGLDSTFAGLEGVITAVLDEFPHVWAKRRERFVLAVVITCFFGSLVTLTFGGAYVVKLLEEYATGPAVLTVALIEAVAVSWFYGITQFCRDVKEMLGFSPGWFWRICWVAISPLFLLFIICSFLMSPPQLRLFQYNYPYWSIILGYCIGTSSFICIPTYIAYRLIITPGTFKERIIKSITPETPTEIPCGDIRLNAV

SMILES: O=C1COc2ccc(OCCCCN3CCN(c4cccc(Cl)c4Cl)CC3)cc2N1 [Brilaroxazine]
- binding affinity (5-HT2B/7): high binding affinity
- binding affinity (5-HT2A): high binding affinity
- binding affinity (D2-4 receptors): high binding affinity
- affinity [1]: moderate affinity
- binding affinity (5-HT1A receptors): high binding affinity
